{"source": "patent US20260198495A1", "about": "“BINARY INSECTICIDE COMPOSITION AND USE THEREOF” (SHENYANG SINOCHEM AGROCHEMICALS R & D CO., LTD., priority 2022, published 2026)", "type_in_all_cases": "in vivo", "key": {"[1]": {"tested_on": "3rd-instar larvae of Ostrinia furnacalis Guenee", "assay": "Joint toxicity of I-72 + organophosphorus insecticides, corn stalk dipping, Example 21, Table 21", "conditions": "3rd-instar larvae, corn stalk dipping, 48 h, A = compound I-72, B = acephate, read-out: LC50", "method": "Test target: 3rd-instar larvae of Ostrinia furnacalis Guenee, a sensitive strain reared indoors.\n(§1) Preparation of the pesticide solution: according to different test requirements, the test samples were accurately weighed respectively with an electronic analytical balance. The technical pesticides were dissolved in acetone, and then diluted with 0.1% Tween 80 water into a series of pesticide solutions with a certain concentration gradient according to the experimental design dosage.\nExperimental method: first, fresh tender corn stalks cultivated in the greenhouse were selected, cut into small sections of 3 cm, and dipped in the prepared pesticide solution for 10 s in the order from low dosage to high dosage according to the experimental design. After natural air-drying in the shade, they were placed in a 9-cm-diameter Petri dish with filter paper, and uniform and healthy test insects were introduced, with 10 insects for each treatment and 3 replicates for each treatment. In addition, a blank control was set up.\nThe treated test materials were placed in an observation room, and the temperature, humidity and illumination of the observation room could be adjusted as needed. The number of dead and live insects was investigated 48 hours later. The corrected mortality rate was calculated using the Abbott's formula, and statistical analysis was performed with the DPS data processing software to obtain the toxicity regression equation, LC50 value and 95% confidence limit of each single test pesticide and each mixture of different ratios. Then, the co-toxicity coefficient of each ratio was calculated using the Sun Y-P method to evaluate the mixing effect (the same as in Example 1)."}, "[2]": {"tested_on": "adult Tetranychus urticae Koch", "assay": "Joint toxicity of I-72 + spirobudifen, Example 29, Table 29", "conditions": "A = compound I-72, B printed spirotetramat (title: spirobudifen), potted-seedling spraying, 72 hours, read-out: LC50", "method": "as §1\nIn addition, a blank control was set up.\nThe treated test materials were placed in an observation room, and the temperature, humidity and illumination of the observation room could be adjusted as needed."}, "[3]": {"tested_on": "early 2nd-instar grubs of Holotrichia diomphalia Bates", "assay": "whole plant or invertebrate", "conditions": "Holotrichia diomphalia; A = compound I-72, B = tebuconazole; insect-dipping; 72 hours; read-out: LC50", "method": "Test target: early 2nd-instar grubs of Holotrichia diomphalia Bates.\nTest conditions: temperature: 24-26° C., humidity: RH 60%, and illumination: L:D=14:10\nas §1\nExperimental method: the activity against Holotrichia diomphalia Bates was determined by the insect-dipping method. The early 2nd-instar grubs of Holotrichia diomphalia Bates were selected. The target insects were dipped into the pesticide solution for 10 s and then taken out. Excess pesticide solution was absorbed with filter paper. […] A treatment without the pesticide was set as the blank control.\nThe test insects were transferred to a multi-well culture plate with fresh potato pieces and placed in an observation room, and the temperature, humidity and illumination of the observation room could be adjusted as needed. The number of dead and live insects was investigated 72 hours later. The corrected mortality rate was calculated using the Abbott's formula, and statistical analysis was performed with the DPS data processing software to obtain the toxicity regression equation and LC50 value of each single test pesticide and each mixture of different ratios."}, "[4]": {"tested_on": "Liriomyza sativae Blanchard larvae", "assay": "Joint toxicity of I-72 + cyromazine, Example 55, Table 55", "conditions": "A = compound I-72, B = cyromazine, kidney bean seedling spraying, counted after blank control larvae pupated, read-out: LC50", "method": "Test target: Liriomyza sativae Blanchard larvae.\nas §1\nExperimental method: first, kidney bean seedlings with the Liriomyza sativae Blanchard larvae (the larvae had just invaded and formed mines) were selected. Spraying treatments were performed in the order from low dosage to high dosage according to the experimental design, with 3 replicates for each treatment. In addition, a blank control was set up.\n(§2) The treated test materials were placed in an observation room, and the temperature, humidity and illumination of the observation room could be adjusted as needed. After the larvae in the blank control group pupated, the numbers of dead and live insects were then counted. […] Then, the co-toxicity coefficient of each ratio was calculated using the Sun Y-P method to evaluate the mixing effect (the same as in Example 1)."}, "[5]": {"tested_on": "Bemisia tabaci (Gennadius) nymphs", "assay": "Joint toxicity of I-72 + spiromesifen, Example 27, Table 27", "conditions": "Bemisia tabaci; A = compound I-72, B = spiromesifen; cotton leaf-disk spraying; 96 hours; read-out: LC50", "method": "Test target: Bemisia tabaci (Gennadius) nymphs, a sensitive strain reared indoors.\nas §1\nExperimental method: first, cotton leaves with neat and consistent Bemisia tabaci (Gennadius) nymphs were selected and made into leaf disks, with about 20 insects on each leaf disk. Then, they were evenly sprayed with the pesticide solution in the order from low dosage to high dosage according to the experimental design, with 1.5 mL for each leaf and 3 replicates for each treatment. In addition, a blank control was set up.\nas §2, with “The number” for “After the larvae in the blank control group pupated, the numbers”, “was investigated 96 hours later.” for “were then counted.”"}, "[6]": {"tested_on": "Aphis craccivora nymphs", "assay": "Synergism screening (Bliss) of I-72 + pyrethroid insecticides, Example 38, Table 38", "conditions": "Aphis craccivora, single pesticide, broad bean seedling spraying, 48 hours, read-out: Measured mortality rate (%)", "method": "Test target: Aphis craccivora nymphs, a sensitive strain reared indoors.\nas §1\nExperimental method: first, broad bean seedlings with uniform and consistent Aphis craccivora were selected, with about 30-40 insects on each seedling. Then, they were evenly sprayed with the pesticide solution in the order from low dosage to high dosage according to the experimental design, with 1.5 mL of the solution for each leaf and 3 replicates for each treatment. In addition, a blank control (CK) was set up.\nThe treated test materials were placed in an observation room, and the temperature, humidity and illumination of the observation room could be adjusted as needed. The number of dead and alive insects was investigated 48 hours later, and the corrected mortality rate was calculated using the Abbott's formula.\nThe synergism of the mixture was evaluated by adopting the Bliss method, as in Example 5."}}}
{"smiles": "CN(C(=O)c1ccc2c(c1)OC(F)(F)O2)c1cccc(C(=O)Nc2c(Br)cc(C(F)(C(F)(F)F)C(F)(F)F)cc2OC(F)F)c1F", "note": "[Compound I-72]", "values": [{"measurement": "LC50", "setting": "[1]", "result": 1.19, "unit": "µg/mL"}, {"measurement": "LC50", "setting": "[2]", "result": 41.6, "unit": "µg/mL"}, {"measurement": "LC50", "setting": "[3]", "result": 63.4, "unit": "µg/mL"}, {"measurement": "LC50", "setting": "[4]", "result": 0.501, "unit": "µg/mL"}, {"measurement": "LC50", "setting": "[5]", "result": 11.9, "unit": "µg/mL"}, {"measurement": "mortality at 0.1 µg/mL", "setting": "[6]; concentration 0.1 mg/L", "result": 11.9, "unit": "%"}, {"measurement": "mortality at 3 µg/mL", "setting": "[6]; concentration 3 mg/L", "result": 60.6, "unit": "%"}]}
